The target of this assay is Cyclin-dependent kinase 6/G1/S-specific cyclin-D3 (Homo sapiens, UniProt Q00534). Briefly: Biological Assay. On the procedure:
CDK6/Cyclin D3: The purpose of the CDK6/Cyclin D3 assay is to evaluate the inhibition (% inhibition, Kiapp and Ki values) in the presence of small molecule inhibitors by using a fluorescence based microfluidic mobility shift assay. […] The mobility shift assay electrophoretically separates the fluorescently labeled peptides (substrate and phosphorylated product) following the kinase reaction. Both substrate and product are measured and the ratio of these values is used to generate % conversion of substrate to product by the LabChip EZ Reader.

The structures appear in SMILES notation.

Chain of Cyclin-dependent kinase 6/G1/S-specific cyclin-D3 (Q00534 whole entry): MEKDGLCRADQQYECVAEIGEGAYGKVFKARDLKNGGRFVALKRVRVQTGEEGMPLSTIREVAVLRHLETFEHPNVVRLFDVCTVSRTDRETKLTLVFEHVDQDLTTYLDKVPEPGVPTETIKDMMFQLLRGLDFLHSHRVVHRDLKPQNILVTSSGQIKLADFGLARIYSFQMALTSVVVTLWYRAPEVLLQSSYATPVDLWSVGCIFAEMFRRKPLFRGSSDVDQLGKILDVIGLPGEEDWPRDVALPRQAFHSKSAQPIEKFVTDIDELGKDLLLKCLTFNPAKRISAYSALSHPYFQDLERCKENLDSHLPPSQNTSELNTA
Chain of Cyclin-dependent kinase 6/G1/S-specific cyclin-D3 (P30281 whole entry, further chain): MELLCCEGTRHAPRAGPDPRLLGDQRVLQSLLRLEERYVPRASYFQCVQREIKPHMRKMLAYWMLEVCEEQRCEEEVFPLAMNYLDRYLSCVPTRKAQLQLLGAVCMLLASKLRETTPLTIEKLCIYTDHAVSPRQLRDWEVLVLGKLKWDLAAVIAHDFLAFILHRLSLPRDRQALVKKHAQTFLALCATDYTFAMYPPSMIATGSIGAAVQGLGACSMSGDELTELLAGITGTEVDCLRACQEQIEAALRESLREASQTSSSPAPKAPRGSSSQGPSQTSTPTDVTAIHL

A word on the Ki: it is a measure of affinity in units of concentration, obtained from inhibition or displacement. A low value points to higher affinity. On to `Cc1nc2c(F)cc(-c3cc(N[C@@H]4CCN(S(C)(=O)=O)C[C@H]4O)ncc3Cl)cc2n1C(C)C` [US10766884, Example E01], for which the affinity, expressed as Ki, was 1.4 nM. That is a single-digit nanomolar value.
